In patent publication US20230140290A1, “SALICYLAMIDE DERIVATIVES AND RELATED METHODS OF MAKING” (THE BOARD OF REGENTS OF THE UNIVERSITY OF TEXAS SY, priority 2020, published 2023):

Columns and labels:
[1] = test system: HAdV5-GFP; test: Plaque assay (inhibition of HAdV plaque formation); format: cell-based, HAdV-5; conditions: for inhibition at 10 µM: read-out: Plaque Assay (%) Inhibition (10 μM); for IC50: read-out: Plaque Assay IC50 (μM), HAdV5-GFP, low MOI, 293β5 cell line; for Selectivity index (SI): ratio of CC50 to IC50 in plaque assay
Experimental: Plaque Assay. […] When cells reached 80-90% confluency, they were infected with HAdV5-GFP (0.06 vp/cell) and rocked for 2 h at 37° C. After the incubation the inoculum was removed, and the cells were washed once with PBS.
Plaque Assay. Compounds were tested using low MOI infections (0.06 vp/cell) and at concentrations of 10 μM and in a dose-response assay ranging from 10 to 0.3 μM in a plaque assay. […] When cells reached 80-90% confluency, they were infected with HAdV5-GFP (0.06 vp/cell) and rocked for 2 h at 37° C. After the incubation the inoculum was removed, and the cells were washed once with PBS. […] The mixture also contained the compounds in concentrations ranging from 10 to 0.3 μM.

[2] = test system: A549 cells; test: Cytotoxicity assay (AlamarBlue); conditions: read-out: CC50 (μM), cytotoxic concentration 50%; A549 cell line, 48 h
Experimental: Cytotoxicity Assay. The cytotoxicity of the compounds was analyzed by commercial kit AlamarBlue® (Invitrogen, Ref. DAL1025). A549 cells at a density of 5×10^3 cells per well in 96-well plates were seeded. […] Cells were then incubated at 37° C. for 48 h following the kit protocol. The cytotoxic concentration 50 (CC50) value was obtained using the statistical package GraphPad Prism. This assay was performed in duplicate.

Structure (SMILES) | inhibition at 10 µM [1] | IC50 [1] | CC50 [2] | Selectivity index (SI) [1] | Plaque Assay (%) Inhibition (10 μM) ([1]; {})
O=C(NCc1ccc(C(F)(F)F)c(F)c1)c1cc(Cl)ccc1O [Compound 36, 5-Chloro-N-(3-fluoro-4-(trifluoromethyl)benzyl)-2-hydroxybenzamide] | 99 ± 1.5% | 1.4 ± 0.02 µM | 22.3 ± 7.2 µM |  | 
O=C(NCc1cc(F)cc(C(F)(F)F)c1)c1cc(Cl)ccc1O [Compound 35, 5-Chloro-N-(3-fluoro-5-(trifluoromethyl)benzyl)-2-hydroxybenzamide] | 98.1 ± 1.4% | 2.4 ± 0.05 µM | 36.3 ± 7.9 µM | 15.1 | 
O=C(NCc1ccc(C(F)(F)F)cc1)c1cc(Cl)ccc1O [Compound 42, 5-Chloro-2-hydroxy-N-(4-(trifluoromethyl)benzyl)benzamide] | 99.6 ± 0.2% | 2.59 ± 0.42 µM | 23.9 ± 9.2 µM | 9.2 | 
O=C(Nc1cc(F)cc(C(F)(F)F)c1)c1ccccc1O [Compound 18, N-(3-Fluoro-5-(trifluoromethyl)phenyl)-2-hydroxybenzamide] | 98.7 ± 1.9% | 1.07 µM | 16.3 µM |  | 
CC(C)CNc1ccc(NC(=O)c2cc(Cl)ccc2O)c(Cl)c1 [Compound 82, 5-Chloro-N-(2-chloro-4-(isobutylamino)phenyl)-2-hydroxybenzamide] | 100% | 0.89 µM | 60 ± 15 µM | 67.4 | 
O=C(Nc1ccc(NCc2cc(Cl)cc(Cl)c2)cc1Cl)c1cc(Cl)ccc1O [Compound 104, 5-Chloro-N-(2-chloro-4-((3,5-dichlorobenzyl)amino)phenyl)-2-hydroxybenzamide] | 100% | 1.43 ± 0.17 µM | 13.3 ± 7.6 µM | 9.3 | 
O=C(N[C@@H](Cc1ccccc1)C(=O)Nc1ccc([N+](=O)[O-])cc1Cl)c1cc(Cl)ccc1O [Compound 59, (S)-5-chloro-N-(1-((2-chloro-4-nitrophenyl)amino)-1-oxo-3-phenylpropan-2-yl)-2-hydroxybenzamide] | 100% |  | 15.2 µM |  | 
O=C(Nc1ccc(N(CCCO)CCCO)cc1Cl)c1cc(Cl)ccc1O [Compound 121, N-(4-(Bis(3-hydroxypropyl)amino)-2-chlorophenyl)-5-chloro-2-hydroxybenzamide] | 35 ± 7.1% |  | 114 ± 9.2 µM |  | inactive
O=C(Nc1ccc(F)c(F)c1)c1cc(Cl)ccc1O [Compound 15, 5-Chloro-N-(3,4-difluorophenyl)-2-hydroxybenzamide] | 100% | 0.27 µM | 8 µM | 29.6 | 
O=C(NCc1ccc(NC2CCCC2)cc1Cl)c1cc(Cl)ccc1O [Compound 145, 5-Chloro-N-(2-chloro-4-(cyclopentylamino)benzyl)-2-hydroxybenzamide] | 98.5 ± 0.7% | 7.97 ± 0.43 µM | 28.3 ± 2.5 µM | 3.6 | 
O=C(Nc1ccc(NCc2ccc3cn[nH]c3c2)cc1Cl)c1cc(Cl)ccc1O [Compound 114, N-(4-(((1H-Indazol-6-yl)methyl)amino)-2-chlorophenyl)-5-chloro-2-hydroxybenzamide] | 98 ± 0.7% | 4.65 µM | 45.3 ± 0.4 µM | 9.7 | 
O=C(Nc1ccc(NCc2ccccc2)cc1Cl)c1cc(Cl)ccc1O [Compound 94, N-(4-(Benzylamino)-2-chlorophenyl)-5-chloro-2-hydroxybenzamide] | 100% | 2.52 ± 0.01 µM | 19.7 ± 2.8 µM | 7.8 | 
O=C(Nc1ccc(NCc2ccc(F)cc2)cc1Cl)c1cc(Cl)ccc1O [Compound 95, 5-Chloro-N-(2-chloro-4-((4-fluorobenzyl)amino)phenyl)-2-hydroxybenzamide] | 100% | 3.4 ± 0.54 µM | 54.4 ± 12.3 µM | 16.0 | 
